In US12084411B2, “Hinokitiol analogues, methods of preparing and pharmaceutical compositions thereof” (The Board of Trustees of the University of Illinois, priority 2018, dated 2024):
Marks after values point to notes of the source that are not given here.

Columns and labels:
[1] = Table 2, in parenthesis; not run under identical conditions; cited from earlier work
[2] = Electrochemical studies (cyclic voltammetry) of iron:chelator complexes; assay type: physicochemical; conditions: Table 2
Procedure: Potentiostatic electrochemical methods were performed on a CH Instruments electrochemical workstation (model 760 C, Austin, TX) on a three-electrode cell. Hg working electrodes were fabricated by the electrodeposition of Hg on a Pt wire utilizing the procedure previously described by Barton et al. (70). All experiments were reported versus a Ag/AgCl reference electrode and utilized a graphite auxiliary electrode. The electrolyte was sparged with UHP argon before measurements. A positive pressure of argon was maintained throughout the experiments.
Unless otherwise indicated, experiments used a 0.1 M Tris buffer in H2O or 1:1 MeOH:H2O at pH=7.2 using HNO3 and KOH as titrant. Unless otherwise indicated, experiments used a 100 mV/s scan rate, 100 μM Fe(NO3)3, and 500 μM small molecule. All redox potentials are recorded versus a normal hydrogen electrode (NHE).
The estimated redox potential of Fe(Hino)n was determined through extrapolation of the best-fit line of the determined redox potentials of Fe(Hino)n as a function of the concentration of MeOH in the 0.1 M Tris buffer at pH=7.2.

[3] = Iron (II) binding affinity, ferrozine competition assay; conditions: pH 7.0
Procedure: (§1) Specifically, the association constant for iron (II) was determined by a ferrozine competition assay (KA of ferrozine=3.65×10^15) (60). FeCl2 (25 μM) was pre-mixed with ferrozine (75 μM) in a 25 mM MES/Tris buffer at pH=7.0 containing 62.5 mM sodium ascorbate. Then increasing concentrations of small molecule (from 40X stocks in DMSO) were added to the indicated final concentrations. The solutions were allowed to equilibrate for 24 hours before reading of the absorbance at 562 nm. […] The system was allowed to equilibrate overnight, and the absorbance corresponding to the Fe(chelator)3 complex was determined. The EC50 values for each chelator were calculated by a nonlinear curve fit (Hill1) on OriginPro by plotting the absorbance vs. concentration of titrant, and the KA for each complex was determined from the equation: KA, ligand=(KA, competitor*[EC50])/[ligand] where the ligand is the molecule originally bound to iron, and the competitor is the competing chelator.

[4] = Iron (III) binding affinity, EDTA or citrate competition assay
Procedure: as §1

[5] = Lipophilicity determination for small molecule iron chelates (octanol-water partition); assay type: physicochemical; conditions: octanol-water partition coefficient
Procedure: Concentrations of small molecule in water were determined via UV-Vis spectroscopy compared to known initial standards.

Structure (SMILES): O=c1cccccc1O [Tropolene]
- E^0 Aqueous, literature value [1]: (0)** mV vs. N.H.E.
- E^0 Aqueous [2]: 39 mV vs. N.H.E.
- E^0 1:1 MeOH:H2O ([2]; 0.1 M Tris, pH 7.2): 38 mV vs. N.H.E.
- KA for iron (II) [3]: 2.3 × 10^15
- KA for iron (III) ([4]; EDTA competition (citrate for maltol), pH 7.0): 1.1 × 10^24
- pFe^III ([4]; estimated from known pFe of EDTA (citrate for maltol)): 22^+
- logP Fe^III Complex [5]: −0.03
